Experimental data taken from patent US12351593B2, “Platinum IV complexes with substantially increased antitumor efficacy” (priority 2019, dated 2025).

Columns and labels:
[1] = test system: cancer cell line Capan-2 (pancreas adenocarcinoma, DSMZ, ACC-245); experiment: XTT test of antitumor efficacy in vitro, Capan-2; type: cell-based; conditions: 72 hours exposure
Description: (§1) XTT method was used in the in vitro experiments. We tested mother platinum (IV) complex TU31 (where X=Cl^−), three new platinum (IV) complexes according to the invention, where X=ClCH2COO^− (complex TU105), F3CCOO^− (complex TU106) and NO3^− (complex TU113), reference platinum (II) complex Oxaliplatin and reference platinum (IV) complex Satraplatin. Two cancer cell lines of heavy-to-treat tumors Capan-2 (pancreas adenocarcinoma) and PC-3 (prostate carcinoma) were used in XTT tests. The obtained results are summarized in the form of IC50 values in the following Table 1:
(§2) Antitumor efficacy of the new Pt(IV) complexes according to the invention was studied on heavy to treat cancer lines of pancreas and prostate. XTT method was used. Results were evaluated in IC50 values and compared with reference Pt(II) complex Oxaliplatin and reference Pt (IV) complex Satraplatin.
(§3) Fresh tumor cell lines were purchased from the Cell Bank to ensure their quality and activities. • a) Capan-2, pancreatic ductal adenocarcinoma, DSMZ, ACC-245 • b) PC-3, prostate carcinoma, ATCC® CRL1435™ Cultivation's Conditions of Tumor Cell Lines: Abbreviation of Used Compounds: • DMSO: dimethyl sulfoxide • PBS: phosphate buffered saline • XTT: 2,3-bis-(2-methoxy-4-nitro-5-sulphophenyl)-2H-tetrazolium-5-carboxanilide salt • PMS: N-methyl-dibenzopyrazinmethylsulfate • FBS: fetal bovine serum • NEAA: non-essential amino acids • L-glu: L-glutamine • DMEM: Dulbecco's Modified Eagle's Medium (SigmaAldrich) • PMS: phenazine methosulfate • Cultivation's conditions: 37° C., 5% CO2 • Growth medium: DMEM, 10% FBS, 2 mM L-glut., NEAA 100× XTT Working Procedure:
(§4) Tested compounds were dissolved in DMSO and diluted by PBS to tested concentration range just before addition to cell lines in wells. PBS was used as a positive control, DMSO in final concentration 20% was used as a negative control. All concentrations of compounds were assayed in triplicates. Each determination was carried out twice and was blinded for experimenter.
(§5) Testing was conducted on a 96-well plate. Dosage of tumor cells was about 2.5. 10^4 cells per well, dosage of growth medium was 100 μl per well. After 24 hours, the growth medium was suck off and 80 μl of fresh growth medium and 20 μl of solution with different concentration of the tested substance were added to wells. After 72 hours, the medium was suck off and 100 μl of a solution of Optimem reagent containing XTT and PMS were added to wells. After another 4 hours, the absorbance was measured at 450 nm (reference was at 630 nm). Results as IC50 were evaluated from the graph of normalized viability of cells plotted against the logarithm of the concentration of the substance.

[2] = test system: cancer cell line PC-3 (prostate carcinoma, ATCC CRL-1435); experiment: XTT test of antitumor efficacy in vitro, PC-3; type: cell-based; conditions: 72 hours exposure
Description: as §1, §2, §3, §4, §5

[3] = test system: PaTu8902, pancreas adenocarcinoma, metastatic, grade II (DSMZ, ACC-179); experiment: Antitumor efficacy in vivo, athymic mice model, subcutaneous PaTu8902 tumor; set-up: species or system mice (Athymic Nude-FOXN-1^nu); conditions: PaTu8902, oral dose 20 mg/kg; for Average tumor weight 28 d / TWI % (tumor weight inhibition): 28 d; for Average volume of tumor 1 d: day 1; for Average volume of tumor 4 d: day 4; for Average volume of tumor 8 d: day 8; for Average volume of tumor 11 d: day 11; for Average volume of tumor 15 d: day 15; for Average volume of tumor 18 d: day 18; for Average volume of tumor 22 d: day 22; for Average volume of tumor 25 d: day 25; for Average volume of tumor 29 d: day 29; for TVI % (tumor volume inhibition): end of experiment
Description: (§6) Two new platinum (IV) complexes TU105 and TU106 from XTT tests were further studied in vivo on athymic mice model with two pancreatic tumors. The platinum (IV) complex Satraplatin and mother complex TU31 were used as reference compounds again. Two heavy-to-treat tumors of pancreas Capan-2 and PaTu8902 were cultivated and then subcutaneously administered to mice at a dose of 1.10^7 cells/mouse. After an increase in the subcutaneous tumors to a volume of about 0.2 cm^3, two doses of respective complexes 2×20 mg/kg were administered orally every 1 week. Control group of mice received no drug. Volume of tumors were continuously measured throughout the experiment. Three weeks after the second dose, mice were sacrificed, tumors removed, weighed and obtained data were evaluated in the form of tumor volume inhibition in % (TVI %) and tumor weight inhibition in % (TWI %), where: TVI %=100−[(TVexp/TVcont)×100] • TVexp=average volume of cured tumors in cm^3 • TVcont=average volume of control tumors in cm^3 TWI %=100−[(TWexp/TWcont)×100] • TWexp=average weight of cured tumors in g • TWcont=average weight of control tumors in g
(§7) In vivo model: Athymic Nude-FOXN-1^nu, 6 mice per group (3 male+3 female)
(§8) • a) Capan-2, pancreatic adenocarcinoma, ductal (DSMZ, ACC-245) • b) […], pancreatic adenocarcinoma, ductal, high metastatic, grade II (DSMZ, ACC-179) Used Pt (IV) Complexes: • a) the reference Pt (IV) complex Satraplatin, detailed specification, see example 4. • b) the mother Pt (IV) complex TU31, detailed specification, see example 4. • c) the new Pt (IV) complex TU105, detailed specification, see example 4. • d) the new Pt (IV) complex TU106, detailed specification, see example 4. Used Doses for Oral Administration:
(§9) The homogenous bulk composition of the each tested Pt (IV) complex (20 mass. %) with Gelucire 50/13 (80 mass. %) was converted to water emulsion before oral administration to mice.
(§10) Cultivation conditions of cancer cell lines: 37° C., 5% CO2, DMEM (Dulbecco's Modified Eagle's Medium, Sigma Aldrich), 10% FBS, (fetal bovine serum), 2 mM L-glutamin, non-essential aminoacids
(§11) Transplantation of cancer cells: A dose 1×10^7 of cells was subcutaneously transplanted to each experimental mouse, then mice were subdivided into individual experimental groups.
(§12) After an increase in the subcutaneous tumors to a volume of about 0.2 cm^3, two doses of respective complexes 2×20 mg/kg were administered orally every 1 week. The control group of mice received no drug. Volume of tumors were continuously measured throughout the experiment. Three weeks after the second dose, mice were sacrificed, tumors removed, weighed and obtained data were evaluated in the form of tumor volume inhibition in % (TVI %) and tumor weight inhibition in % (TWI %), where: TVI %=100−[(TVexp/TVcont)×100] • TVexp=average volume of cured tumors in cm^3 • TVcont=average volume of control tumors in cm^3 TWI %=100−[(TWexp/TWcont)×100] • TWexp=average weight of cured tumors in g • TWcont=average weight of control tumors in g Obtained Results: […]

[4] = test system: Capan-2, pancreas adenocarcinoma (DSMZ, ACC-245); experiment: Antitumor efficacy in vivo, athymic mice model, subcutaneous Capan-2 tumor; set-up: species or system mice (Athymic Nude-FOXN-1^nu); conditions: for Average tumor weight 28 d / TWI % (tumor weight inhibition) / Average tumor volume 1 d / Average tumor volume 4 d / Average tumor volume 8 d / Average tumor volume 11 d / Average tumor volume 15 d / Average tumor volume 18 d / Average tumor volume 22 d / Average tumor volume 25 d / Average tumor volume 29 d / TVI % (tumor volume inhibition): Capan-2, oral dose 20 mg/kg; for Average tumor weight 28 d / TWI % (tumor weight inhibition): 28 d; for Average tumor volume 1 d: day 1; for Average tumor volume 4 d: day 4; for Average tumor volume 8 d: day 8; for Average tumor volume 11 d: day 11; for Average tumor volume 15 d: day 15; for Average tumor volume 18 d: day 18; for Average tumor volume 22 d: day 22; for Average tumor volume 25 d: day 25; for Average tumor volume 29 d: day 29; for TVI % (tumor volume inhibition): end of experiment; for anti-tumor efficacy (TWI %), times greater than for reference Satraplatin: both pancreatic tumors Capan-2 and PaTu8902
Description: as §6, §7, §8, §9, §10, §11, §12

| SMILES | IC50 [1] | IC50 [2] | Average tumor weight 28 d [3] | TWI % (tumor weight inhibition) [3] | Average volume of tumor 1 d [3] | Average volume of tumor 4 d [3] | Average volume of tumor 8 d [3] | Average volume of tumor 11 d [3] | Average volume of tumor 15 d [3] | Average volume of tumor 18 d [3] | Average volume of tumor 22 d [3] | Average volume of tumor 25 d [3] | Average volume of tumor 29 d [3] | TVI % (tumor volume inhibition) [3] | Average tumor weight 28 d [4] | TWI % (tumor weight inhibition) [4] | Average tumor volume 1 d [4] | Average tumor volume 4 d [4] | Average tumor volume 8 d [4] | Average tumor volume 11 d [4] | also measured |
| --- | --- | --- | --- | --- | --- | --- | --- | --- | --- | --- | --- | --- | --- | --- | --- | --- | --- | --- | --- | --- | --- |
| N[C@@H]1CCCC[C@H]1N.O=C([O-])C(=O)[O-].[Pt+2] [Oxaliplatin, (1R,2R-1,2-cyclohexanediamine-N,N′) (ethanedioato-O,O′) platinum (II), reference compound] | > 100000 nM | 55700 nM | – | – | – | – | – | – | – | – | – | – | – | – | – | – | – | – | – | – | – |
| CC(=O)[O][Pt]([NH2])([Cl])([Cl])([NH]C1CCCCC1)[O]C(C)=O [Satraplatin, cis-(ammine, cyclohexylamine)-trans-bis-acetate-cis-dichloride Pt(IV), reference compound] | > 30000 nM | 10200 nM | 7.245 g | 11.5% | 0.21 cm^3 | 0.50 cm^3 | 0.99 cm^3 | 1.94 cm^3 | 3.10 cm^3 | 4.80 cm^3 | 6.80 cm^3 | 9.35 cm^3 | 11.90 cm^3 | 12.8% | 0.711 g | 10.3% | 0.21 cm^3 | 0.23 cm^3 | 0.30 cm^3 | 0.39 cm^3 | Average tumor volume 15 d [4]: 0.47 cm^3; Average tumor volume 18 d [4]: 0.56 cm^3; Average tumor volume 22 d [4]: 0.66 cm^3; Average tumor volume 25 d [4]: 0.77 cm^3; Average tumor volume 29 d [4]: 0.90 cm^3; TVI % (tumor volume inhibition) [4]: 10.0% |
| [NH3+][Pt-2]([Cl])([NH2+]C12CC3CC(CC(C3)C1)C2)([O]C(=O)CCl)([O]C(=O)C12CC3CC(CC(C3)C1)C2)[O]C(=O)C12CC3CC(CC(C3)C1)C2 [TU105, cis-(ammine,1-adamantylamine)-trans-bis(1-adamantylcarboxylate)-cis-(chloride, monochloroacetate) Pt (IV)] | 40 nM | 60 nM | 2.522 g | 69.2% | 0.21 cm^3 | 0.21 cm^3 | 0.40 cm^3 | 0.62 cm^3 | 1.06 cm^3 | 1.65 cm^3 | 2.46 cm^3 | 3.40 cm^3 | 4.35 cm^3 | 68.1% | 0.213 g | 73.1% | 0.20 cm^3 | 0.21 cm^3 | 0.22 cm^3 | 0.23 cm^3 | Average tumor volume 15 d [4]: 0.27 cm^3; Average tumor volume 18 d [4]: 0.30 cm^3; Average tumor volume 22 d [4]: 0.34 cm^3; Average tumor volume 25 d [4]: 0.37 cm^3; Average tumor volume 29 d [4]: 0.40 cm^3; TVI % (tumor volume inhibition) [4]: 60.0%; anti-tumor efficacy (TWI %), times greater than for reference Satraplatin [4]: about 7 times |
| N.NC12CC3CC(CC(C3)C1)C2.O=C([O-])C(F)(F)F.O=C([O-])C12CC3CC(CC(C3)C1)C2.O=C([O-])C12CC3CC(CC(C3)C1)C2.[Cl-].[Pt+4] [TU106, cis-(ammine,1-adamantylamine)-trans-bis(1-adamantylcarboxylate)-cis-(chloride, trifluoroacetate) Pt (IV)] | 20 nM | 70 nM | 2.317 g | 71.7% | 0.21 cm^3 | 0.21 cm^3 | 0.37 cm^3 | 0.60 cm^3 | 1.01 cm^3 | 1.60 cm^3 | 2.35 cm^3 | 3.27 cm^3 | 4.20 cm^3 | 69.2% | 0.166 g | 79.1% | 0.21 cm^3 | 0.21 cm^3 | 0.23 cm^3 | 0.24 cm^3 | Average tumor volume 15 d [4]: 0.25 cm^3; Average tumor volume 18 d [4]: 0.26 cm^3; Average tumor volume 22 d [4]: 0.28 cm^3; Average tumor volume 25 d [4]: 0.29 cm^3; Average tumor volume 29 d [4]: 0.31 cm^3; TVI % (tumor volume inhibition) [4]: 69.0%; anti-tumor efficacy (TWI %), times greater than for reference Satraplatin [4]: about 7 times |
| [NH3+][Pt-2]([Cl])([NH2+]C12CC3CC(CC(C3)C1)C2)([O]C(=O)C12CC3CC(CC(C3)C1)C2)([O]C(=O)C12CC3CC(CC(C3)C1)C2)[O][N+](=O)[O-] [TU113, cis-(ammine,1-adamantylamine)-trans-bis(1-adamantylcarboxylate)-cis-(chloride, nitrate) Pt (IV)] | 110 nM | 230 nM | – | – | – | – | – | – | – | – | – | – | – | – | – | – | – | – | – | – | – |
